Source: the NIST ThermoML archive (doi:10.1016/j.jct.2005.03.012)

Experiment: excess molar enthalpy (molar enthalpy of mixing); xn = mol fraction of the nth substance listed
Conditions: Liquid

CO [methanol] + O
Conditions	excess molar enthalpy [kcal/mol]
323.15 K, 2000 kPa, x1 = 0.2	-0.153
323.15 K, 2000 kPa, x1 = 0.4	-0.168
323.15 K, 2000 kPa, x1 = 0.6	-0.142
323.15 K, 2000 kPa, x1 = 0.8	-0.0978
323.15 K, 5000 kPa, x1 = 0.1	-0.106
323.15 K, 5000 kPa, x1 = 0.2	-0.154
323.15 K, 5000 kPa, x1 = 0.3	-0.17
323.15 K, 5000 kPa, x1 = 0.4	-0.169
323.15 K, 5000 kPa, x1 = 0.5	-0.158
323.15 K, 5000 kPa, x1 = 0.6	-0.142
323.15 K, 5000 kPa, x1 = 0.7	-0.122
323.15 K, 5000 kPa, x1 = 0.8	-0.0987
323.15 K, 5000 kPa, x1 = 0.9	-0.055
323.15 K, 10000 kPa, x1 = 0.2	-0.155
323.15 K, 10000 kPa, x1 = 0.4	-0.172
323.15 K, 10000 kPa, x1 = 0.6	-0.143
323.15 K, 10000 kPa, x1 = 0.8	-0.0997
325.16 K, 5000 kPa, x1 = 0.1	-0.103
325.16 K, 5000 kPa, x1 = 0.2	-0.15
325.16 K, 5000 kPa, x1 = 0.3	-0.165
325.16 K, 5000 kPa, x1 = 0.4	-0.164
325.16 K, 5000 kPa, x1 = 0.5	-0.153
325.16 K, 5000 kPa, x1 = 0.6	-0.139
325.16 K, 5000 kPa, x1 = 0.7	-0.119
325.16 K, 5000 kPa, x1 = 0.8	-0.0958
325.16 K, 5000 kPa, x1 = 0.9	-0.0548
325.16 K, 10000 kPa, x1 = 0.2	-0.15
325.16 K, 10000 kPa, x1 = 0.4	-0.166
325.16 K, 10000 kPa, x1 = 0.6	-0.139
325.16 K, 10000 kPa, x1 = 0.8	-0.0964
325.17 K, 2000 kPa, x1 = 0.2	-0.149
325.17 K, 2000 kPa, x1 = 0.4	-0.164
325.17 K, 2000 kPa, x1 = 0.6	-0.138
325.17 K, 2000 kPa, x1 = 0.8	-0.0951
325.45 K, 5000 kPa, x1 = 0.9	-0.0537
327.47 K, 5000 kPa, x1 = 0.8	-0.0944
327.48 K, 5000 kPa, x1 = 0.9	-0.0536
327.62 K, 2000 kPa, x1 = 0.8	-0.0935
327.85 K, 10000 kPa, x1 = 0.8	-0.0948
328.61 K, 5000 kPa, x1 = 0.1	-0.0988
328.71 K, 5000 kPa, x1 = 0.7	-0.114
329.03 K, 2000 kPa, x1 = 0.8	-0.0907
329.7 K, 10000 kPa, x1 = 0.6	-0.132
329.76 K, 5000 kPa, x1 = 0.6	-0.131
329.82 K, 2000 kPa, x1 = 0.6	-0.131
329.82 K, 10000 kPa, x1 = 0.8	-0.0921
330.07 K, 5000 kPa, x1 = 0.8	-0.0915
330.39 K, 5000 kPa, x1 = 0.1	-0.0956
330.5 K, 5000 kPa, x1 = 0.5	-0.144
330.64 K, 2000 kPa, x1 = 0.2	-0.139
330.67 K, 10000 kPa, x1 = 0.2	-0.14
330.69 K, 5000 kPa, x1 = 0.2	-0.14
330.7 K, 5000 kPa, x1 = 0.7	-0.112
331.07 K, 2000 kPa, x1 = 0.4	-0.151
331.07 K, 5000 kPa, x1 = 0.4	-0.153
331.13 K, 10000 kPa, x1 = 0.4	-0.153
331.23 K, 5000 kPa, x1 = 0.3	-0.152
331.57 K, 10000 kPa, x1 = 0.6	-0.128
331.61 K, 5000 kPa, x1 = 0.6	-0.128
331.66 K, 2000 kPa, x1 = 0.6	-0.127
332.3 K, 5000 kPa, x1 = 0.5	-0.14
332.4 K, 10000 kPa, x1 = 0.2	-0.135
332.42 K, 2000 kPa, x1 = 0.2	-0.133
332.5 K, 5000 kPa, x1 = 0.2	-0.136
332.88 K, 2000 kPa, x1 = 0.4	-0.148
332.9 K, 5000 kPa, x1 = 0.4	-0.148
332.91 K, 10000 kPa, x1 = 0.4	-0.149
333.05 K, 5000 kPa, x1 = 0.3	-0.148
348.15 K, 5000 kPa, x1 = 0.1	-0.0704
348.15 K, 5000 kPa, x1 = 0.2	-0.102
348.15 K, 5000 kPa, x1 = 0.3	-0.112
348.15 K, 5000 kPa, x1 = 0.4	-0.111
348.15 K, 5000 kPa, x1 = 0.5	-0.107
348.15 K, 5000 kPa, x1 = 0.6	-0.0974
348.15 K, 5000 kPa, x1 = 0.7	-0.0869
348.15 K, 5000 kPa, x1 = 0.8	-0.0695
348.15 K, 5000 kPa, x1 = 0.9	-0.0424
349.68 K, 5000 kPa, x1 = 0.9	-0.0412
350.05 K, 5000 kPa, x1 = 0.1	-0.0674
350.05 K, 5000 kPa, x1 = 0.2	-0.0978
350.05 K, 5000 kPa, x1 = 0.3	-0.106
350.05 K, 5000 kPa, x1 = 0.4	-0.106
350.05 K, 5000 kPa, x1 = 0.5	-0.102
350.05 K, 5000 kPa, x1 = 0.6	-0.0936
350.05 K, 5000 kPa, x1 = 0.7	-0.0835
350.05 K, 5000 kPa, x1 = 0.8	-0.0667
350.05 K, 5000 kPa, x1 = 0.9	-0.0408
351.04 K, 5000 kPa, x1 = 0.8	-0.0626
351.25 K, 5000 kPa, x1 = 0.9	-0.0398
351.64 K, 5000 kPa, x1 = 0.1	-0.0659
351.93 K, 5000 kPa, x1 = 0.7	-0.0796
352.43 K, 5000 kPa, x1 = 0.6	-0.0885
352.79 K, 5000 kPa, x1 = 0.8	-0.0634
352.88 K, 5000 kPa, x1 = 0.5	-0.096
353.01 K, 5000 kPa, x1 = 0.2	-0.0922
353.16 K, 5000 kPa, x1 = 0.4	-0.0995
353.32 K, 5000 kPa, x1 = 0.3	-0.1
353.54 K, 5000 kPa, x1 = 0.1	-0.0624
353.78 K, 5000 kPa, x1 = 0.7	-0.0773
354.25 K, 5000 kPa, x1 = 0.6	-0.0852
354.69 K, 5000 kPa, x1 = 0.5	-0.0921
354.82 K, 5000 kPa, x1 = 0.2	-0.0883
354.97 K, 5000 kPa, x1 = 0.4	-0.095
